In this assay the test system is monocistronic NK5.1 HCV replicon in Huh7 cells. As to the kind of experiment: HCV replicon assay, monocistronic replicon cell line. It counts as cell-based, hepatitis C virus. The following applies: Hepatitis C virus, Huh-7, 72 h; table T3 (compounds 471-640); monocistronic replicon in Huh7 cells, 3 days incubation, HCV RNA/GAPDH RNA by TaqMan RT-PCR; read-out: Mono EC50 Median. The method in brief:
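EC50 derives from the HCV RNA/GAPDH RNA ratio by one-step TaqMan RT-PCR, relative to DMSO-only wells. Compounds (six half-log concentrations, 0.6% DMSO) were incubated 3 days at 37 °C with NK5.1 monocistronic replicon Huh7 cells plated a day earlier.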
On the technique in general: In antiviral work, replicon cells carry a viral genome segment that copies itself.

On to `Cn1nc(-c2ccccn2)nc1-c1cc(Cl)cc(Cl)c1O` [Compound 625, 4,6-Dichloro-2-(2-methyl-5-pyridin-2-yl-2H-[1,2,4]triazol-3-yl)-phenol], for which the EC50 (usually the concentration at which the effect is half-maximal) is 3.2 µM.

For the compound `Cn1nc(-c2ccccn2)nc1-c1cc(Br)cc(Br)c1O` [Compound 626, 4,6-Dibromo-2-(2-methyl-5-pyridin-2-yl-2H-[1,2,4]triazol-3-yl)-phenol], the half-maximal effective concentration (EC50) worked out at 4.8 µM.

As for `Cn1nc(-c2ccccn2)nc1-c1cc(Cl)cc(Br)c1O` [Compound 627, 6-Bromo-4-Chloro-2-(2-methyl-5-pyridin-2-yl-2H-[1,2,4]triazol-3-yl)-phenol], the 50% effective concentration (EC50) came out at 2.5 µM.

As for `c1ccc(-c2ncn(-c3ccccn3)n2)cc1` [Compound 628, 2-(3-Phenyl-[1,2,4]triazol-1-yl)-pyridine], the EC50 is more than 32 µM.

`Oc1ccccc1-c1ncn(-c2ccccn2)n1` [Compound 629, 2-(1-Pyridin-2-yl-1H-[1,2,4]triazol-3-yl)-phenol]: the EC50 turned out to be 16 µM.

As to `Oc1ccc(Cl)cc1-c1ncn(-c2ccccn2)n1` [Compound 630, 4-Chloro-2-(1-pyridin-2-yl-1H-[1,2,4]triazol-3-yl)-phenol], the EC50 was 11 µM.

Take `Oc1ccc(Br)cc1-c1ncn(-c2ccccn2)n1` [Compound 631, 4-Bromo-2-(1-pyridin-2-yl-1H-[1,2,4]triazol-3-yl)-phenol]: the EC50 turned out to be 1.4 µM.

Take `COc1ccc(O)c(-c2nc(-c3ncccc3C(F)(F)F)nn2C)c1` [Compound 632, 4-Methoxy-2-[2-methyl-5-(3-trifluoromethyl-pyridin-2-yl)-2H-[1,2,4]triazol-3-yl]-phenol]: the EC50 amounted to 31 µM.

In the case of `Cn1nc(-c2ncccc2C(F)(F)F)nc1-c1cc(Br)ccc1O` [Compound 633, 4-Bromo-2-[2-methyl-5-(3-trifluoromethyl-pyridin-2-yl)-2H-[1,2,4]triazol-3-yl]phenol], the EC50 came out at 3.6 µM.

For the compound `Oc1ccc(Br)cc1-c1ncn(-c2ncccc2C(F)(F)F)n1` [Compound 634, 4-Bromo-2-[1-(3-trifluoromethyl-pyridin-2-yl)-1H-[1,2,4]triazol-3-yl]-phenol], the EC50 worked out at 3.8 µM.

As for `Cc1cccnc1-n1cnc(-c2cc(Br)ccc2O)n1` [Compound 635, 4-Bromo-2-[1-(3-methyl-pyridin-2-yl)-1H-[1,2,4]triazol-3-yl]-phenol], the EC50 is 6.2 µM.

`COc1ccc(O)c(-c2ncn(-c3ccccn3)n2)c1` [Compound 636, 4-Methoxy-2-(1-pyridin-2-yl-1H-[1,2,4]triazol-3-yl)-phenol]: the EC50 amounted to 15 µM.

In the case of `COc1ccc(O)c(-c2ncn(-c3ncccc3C)n2)c1` [Compound 637, 4-Methoxy-2-[1-(3-methyl-pyridin-2-yl)-1H-[1,2,4]triazol-3-yl]-phenol], the EC50 amounted to 12 µM.

Regarding `COc1ccc(O)c(-c2ncn(-c3ncccc3C(F)(F)F)n2)c1` [Compound 638, 4-Methoxy-2-[1-(3-trifluoromethyl-pyridin-2-yl)-1H-[1,2,4]triazol-3-yl]-phenol], the EC50 was 11 µM.

As for `c1ccc(-c2ncn(-c3ccccn3)n2)nc1` [Compound 639], the EC50 was more than 32 µM.

For `Cn1nc(-c2ncccc2C(F)(F)F)nc1-c1cc([N+](=O)[O-])ccc1O` [Compound 640, 4-Nitro-2-[2-methyl-5-(3-trifluoromethyl-pyridin-2-yl)-2H-[1,2,4]triazol-3-yl]-phenol], the EC50 is more than 32 µM.

For the origin of these results see patent US20050075375A1 (priority 2003, published 2005).
